Measured values published in US20250314668A1, “DNAZYMES FOR SENSING AND IMAGING TARGET MOLECULES” (BOARD OF REGENTS, THE UNIVERSITY OF TEXAS SYSTEM, priority 2024, published 2025).
Where a chain is given by its changes, count along the chain named. “Also recorded” adds a separate entry of the source. d = 2'-deoxy (DNA); m = 2'-O-methyl; r = 2'-OH (RNA)

Assays:
[1] = test system: HT1080 cells; assay: Fe^2+ and Fe^3+ imaging in cells treated with SAS and Fer-1, with or without NCOA4 knock down; assay type: cell-based
Procedure: Ferroptosis is a Fe-related cell death. To understand how Fe^2+ and Fe^3+ have a role in this process, the cells were incubated with Sulfasalazine (SAS), which inhibits System Xc- and induces ferroptosis. Elevated Fe^2+ and Fe^3+ levels, as well as an elevated Fe^3+/Fe^2+ ratio over time, were observed when compared with nontreated controls. This elevation is inhibited by Ferrostatin-1 (Fer-1), an antioxidant that inhibits lipid peroxidation by scavenging alkoxyl radicals. […] This observation indicates the association between Fe levels and lipid peroxidation.
To understand how labile iron and iron redox changes are associated with cell ferroptosis, the study focused on the regulatory effects of NCOA4 on Fe^2+ and Fe^3+. NCOA4 is a key gene that regulates iron homeostasis through ferritinophagy, degrading iron storage protein, and releasing iron into the cell. To understand how NCOA4 influences Fe^2+ and Fe^3+, the study used the CRISPR/Cas technique to knock down NCOA4 expressions. As shown with the western blot, single guide RNAs knocked down the expression of NCOA4 in the HT1080 cells. In these cells, reduced Fe^2+ and Fe^3+ signals were detected as indicated by the DNAzyme sensors. In the meanwhile, the redox ratio of Fe^3+/Fe^2+ elevated, indicating the NCOA4 may not only regulate the labile iron amount but also the Fe redox states.
On the contrary, when inhibiting ferroptosis with Fer-1, reduced Fe^2+ and Fe^3+ levels were observed.

[2] = PAGE gel activity assays of Fe^2+ H5 DNAzyme (cleavage site, truncation, pH, mutation combinations, selectivity); assay type: biochemical; details: for cleavage by the original Fe^2+ H5 DNAzyme: presence of Fe^2+, anaerobic conditions; for relative activity of combined point mutations versus original: original FAM-labeled substrate, 100 μM FeCl2, 2 hours, room temperature
From the text: RNA Cleavage Dependence of Fe^2+ H5 and Fe^3+ B12 DNAzymes: To investigate the Fe^2+ H5 and Fe^3+ B12 DNAzymes, various cleavage site modifications were incorporated into the substrate strands. The original Fe^2+ H5 DNAzyme was combined with Fe^2+ H5 substrate strands containing either a 2′-hydroxyl (2′OH), 2′-hydrogen (2′H), or 2′O-methyl (2′OMe) at the cleavage site. The original Fe^2+ H5 DNAzyme cleaves the Fe^2+ H5 substrate strand containing 2′OH at the cleavage site in the presence of Fe^2+ under anaerobic conditions. […] Similarly, the original Fe^3+ B12 DNAzyme was combined with Fe^3+ B12 substrate strands containing either 2′OH, 2′H, or 2′OMe at the cleavage site. The original Fe^3+ B12 DNAzyme cleaves the Fe^3+ B12 substrate strand containing 2′OH at the cleavage site in the presence of Fe^3+. […] These findings highlight the critical role of the 2′OH group at the cleavage site in enabling DNAzyme activity for both Fe^2+ H5 and Fe^3+ B12 systems, as substitutions with 2′H or 2′OMe impede cleavage.
Truncations of Fe^2+ H5 and Fe^3+ B12 DNAzymes' Binding Arms: To further investigate the Fe^2+ H5 and Fe^3+ B12 DNAzymes, the DNAzymes were truncated at the 5′ and 3′ ends and tested using the FAM-labeled original substrate strand through activity assays assessed by PAGE gel. The activity of the Fe^2+ H5 DNAzyme with the original substrate strand remains relatively unchanged when 1 or 2 nucleotides are truncated from either the 3′ or 5′ end. […] The activity of the Fe^3+ B12 DNAzyme with the original substrate strand is maintained when 1 or 2 nucleotides are truncated from the […]. A notable reduction in relative intensity occurs when 3, 4, or 5 nucleotides are truncated from the 5′ end. Additionally, truncation of 1, 2, or 3 nucleotides from the 3′ end also results in a decrease in relative intensity.
pH Dependency of Fe^2+ H5 and Fe^3+ B12 DNAzymes: To further investigate the impact of reaction conditions on catalytic activity, the study evaluated the influence of pH system. For the Fe^2+ H5 DNAzyme, the study assessed cleavage efficiency across a pH range of 6.0 to 7.5 in MOPS, MES, Bis-Tris, or Tris under anaerobic conditions with 100 μM FeCl2.
Combination of Fe^2+ H5 DNAzyme strand Improvements: Given the enhanced activity observed with several point mutations in the Fe^2+ H5 DNAzyme strand, the study investigated whether combinations of these point mutations would further improve the DNAzyme's activity. The study designed 41 combinations of the 6-point mutations located at positions 39 (A39T and A39G), 40 (A40C), 51 (G51C), 52 (C52G), and 54 (T54C), along with the original Fe^2+ H5. Each sequence was tested with the original FAM-labeled Fe^2+ substrate strand in the presence of 100 μM FeCl2 for 2 hours at room temperature. […] Certain combinations of mutations enhance activity, while others diminish it, indicating interactions that are not merely additive. The specific positions of the mutations play a critical role in determining the overall activity, with some combinations inducing beneficial conformational changes and others disrupting key structural elements. These findings highlight the importance of understanding the contextual interplay of mutations for optimizing DNAzyme performance. The identified combinations that increase activity offer valuable insights for the future engineering of more efficient DNAzyme variants.
Combining Enhanced Fe^2+ H5 and Fe^3+ B12 DNAzymes Single Point Mutations: To assess the potential additive effects of combining enhanced Fe^2+ H5 DNAzyme strands with substrate strands, the study evaluated the relative intensities of point mutations within these strands. Reactions were conducted in a buffer solution containing 25 mM Bis-Tris, 200 mM NaCl at pH 6.5, with 250 nM each of the mutated H5 DNAzyme strand and the FAM-labeled mutated H5 substrate strand, and 100 μM FeCl2. […]

[3] = Point mutation gel cleavage assay of Fe^2+ H5 DNAzyme and substrate (heat map); assay type: biochemical; details: 100 μM FeCl2, pH 6.5, anaerobic, overnight; for activity of mutated substrate strand normalized to original Fe^2+ H5 Substrate: original DNAzyme strand; for activity of mutated DNAzyme strand normalized to original Fe^2+ H5 DNAzyme: FAM-labeled original substrate
Procedure: (§1) FIG. 7 depicts a heat map illustrating the impact of point mutations within the catalytic core of the Fe^2+ H5 DNAzyme, against the unaltered Fe^2+ H5 substrate strand for comparative analysis with 25 mM Bis Tris, 200 mM NaCl at pH 6.5 with 100 μM FeCl2 in anaerobic conditions. The reaction occurred overnight at room temperature and analyzed by polyacrylamide gel electrophoresis.
as §1, with “8” for “7”, “Substrate strand,” for “DNAzyme,”, “DNAzyme” for “substrate”
(§2) Point mutations were intentionally introduced into the Fe^2+ H5 DNAzyme, and subsequently assessed in comparison to the unaltered Fe^2+ H5 Substrate under controlled reaction conditions. These conditions include a solution containing 25 mM Bis Tris, 200 mM NaCl at pH 6.5, with concentrations set at 250 nM for both the mutated H5 DNAzyme Strand and the FAM-labeled Original H5 Substrate Strand, alongside 100 μM FeCl2. The reaction proceeded overnight at room temperature under anaerobic conditions, followed by analysis via electrophoresis on a 15% denaturing gel.
as §2, with “Fe^2+ H5 Substrate Strand, and subsequently” for “Fe^2+ H5 DNAzyme, and subsequently”, “Fe^2+ H5 DNAzyme under controlled” for “Fe^2+ H5 Substrate under controlled”, “both the Original H5 DNAzyme” for “both the mutated H5 DNAzyme”, “the FAM-labeled mutated H5 Substrate” for “the FAM-labeled Original H5 Substrate”

With `CCOC(=O)c1ccc(NC2CCCCC2)c(N)c1` [Fer-1, Ferrostatin-1] the “effect of Fer-1 on the SAS-induced elevation of Fe levels” value ([1]; Fer-1 added to SAS-treated cells) was “inhibited; also recorded: reduced”, the “Fe^2+ and Fe^3+ levels in control guide RNA cells” value [1] was “reduced” and the “Fe^2+ and Fe^3+ levels compared with nontreated controls” value ([1]; over time) was “slightly reduced”.

In the case of `O=C(O)c1cc(/N=N/c2ccc(S(=O)(=O)Nc3ccccn3)cc2)ccc1O` [SAS, Sulfasalazine], the “Fe^2+ and Fe^3+ levels in control guide RNA cells” value [1] is reported as “elevated”, the “Fe^2+ and Fe^3+ levels compared with nontreated controls” value ([1]; over time) is reported as “Elevated” and the “Fe^3+/Fe^2+ ratio compared with nontreated controls” value ([1]; over time) is reported as “elevated”. For the same molecule, the “increase in Fe^2+ and Fe^3+ levels in NCOA4 downregulated cells” value ([1]; similar treatments as control cells) was “smaller increase”.

In the case of “Fe^2+ H5 Original Substrate (2′H) (CGGACCCGTATCAATCTCACGTATAGGATATCCA; DNA, backbone not given here)”, the “cleavage by the original Fe^2+ H5 DNAzyme” value [2] is reported as “does not cleave”.

With “Fe^2+ H5 Original Substrate (2′OMe) (CGGACCCGTATCAATCTCACGTATAGGATATCCA; sugars from the 5' end d24 m1 d9, backbone not given here)” the “cleavage by the original Fe^2+ H5 DNAzyme” value [2] was “does not cleave”.

In the case of “Fe^2+ H5 Substrate A13C (CGGACCCGTATCCATCTCACGTATAGGATATCCA; DNAzyme; sugars from the 5' end d24 r1 d9, backbone not given here; FAM-labeled in assays, further chemistry not fully specified)”, the “activity of mutated substrate strand normalized to original Fe^2+ H5 Substrate” value [3] is reported as “heightened activity”.

For “Fe^2+ H5 Substrate A14T (CGGACCCGTATCATTCTCACGTATAGGATATCCA; DNAzyme; sugars from the 5' end d24 r1 d9, backbone not given here; FAM-labeled in assays, further chemistry not fully specified)”, the “activity of mutated substrate strand normalized to original Fe^2+ H5 Substrate” value [3] was “heightened activity”.

For “Fe^2+ H5 Substrate T11C (CGGACCCGTACCAATCTCACGTATAGGATATCCA; DNAzyme; sugars from the 5' end d24 r1 d9, backbone not given here; FAM-labeled in assays, further chemistry not fully specified)”, the “activity of mutated substrate strand normalized to original Fe^2+ H5 Substrate” value [3] was “heightened activity”.

B1: Fe^2+ H5 DNAzyme A39T (nucleic acid)
chain: TGGATATCTCCTAGCCAGACTGTTATGTGTGATACGGCTAACTTCGTGATGCCTCTACGGGTCCG
modifications: DNA, backbone not given here
With B1 the “activity of mutated DNAzyme strand normalized to original Fe^2+ H5 DNAzyme” value [3] was “heightened activity”.

B2: Fe^2+ H5 DNAzyme A39G (nucleic acid)
chain: B1 chain with T39G
modifications: DNA, backbone not given here
For B2, the “activity of mutated DNAzyme strand normalized to original Fe^2+ H5 DNAzyme” value [3] was “heightened activity”.

B3: Fe^2+ H5 DNAzyme A40C (nucleic acid)
chain: B1 chain with T39A, A40C
modifications: DNA, backbone not given here
In the case of B3, the “activity of mutated DNAzyme strand normalized to original Fe^2+ H5 DNAzyme” value [3] is reported as “heightened activity”.

B4: Fe^2+ H5 DNAzyme G51C (nucleic acid)
chain: B1 chain with T39A, G51C
modifications: DNA, backbone not given here
With B4 the “activity of mutated DNAzyme strand normalized to original Fe^2+ H5 DNAzyme” value [3] was “heightened activity”.

B5: Fe^2+ H5 DNAzyme C52G (nucleic acid)
chain: B1 chain with T39A, C52G
modifications: DNA, backbone not given here
With B5 the “activity of mutated DNAzyme strand normalized to original Fe^2+ H5 DNAzyme” value [3] was “heightened activity”.

B6: Fe^2+ H5 DNAzyme T54C (nucleic acid)
chain: B1 chain with T39A, T54C
modifications: DNA, backbone not given here
For B6, the “activity of mutated DNAzyme strand normalized to original Fe^2+ H5 DNAzyme” value [3] was “heightened activity”.

B7: Fe^2+ H5 DNAzyme Combo 31 (nucleic acid)
chain: B1 chain with T39G, A40C, G51C, C52G
modifications: DNA, backbone not given here
For B7, the “relative activity of combined point mutations versus original” value (shortened to “relative activity”) [2] was “decreased the relative activity”.

B8: Fe^2+ H5 DNAzyme Combo 29 (nucleic acid)
chain: B1 chain with T39G, G51C, C52G
modifications: DNA, backbone not given here
With B8 the “relative activity” value [2] was “increased the relative activity”.

B9: Fe^2+ H5 DNAzyme Combo 30 (nucleic acid)
chain: B1 chain with T39G, A40C, T54C
modifications: DNA, backbone not given here
For B9, the “relative activity” value [2] was “increased the relative activity”.

B10: Fe^2+ H5 DNAzyme Combo 41 (nucleic acid)
chain: B1 chain with T39G, A40C, G51C, C52G, T54C
modifications: DNA, backbone not given here
With B10 the “relative activity” value [2] was “increased the relative activity”.
